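Test compounds were applied to cells in 96-well plates for 48 hours at 5 doses. At the GI50, growth is halved. TGI is the concentration that stops growth completely.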
Key:
Test in all cases: DTP human tumour cell line panel, 48 h
[1] = tested on: A498 renal
[2] = tested on: RPMI-8226 leukemia
[3] = tested on: OVCAR-5 ovarian
[4] = tested on: NCI/ADR-RES ovarian
[5] = tested on: NCI-H460 lung
[6] = tested on: NCI-H23 lung
[7] = tested on: MDA-N
[8] = tested on: NCI-H226 lung
[9] = tested on: K-562 leukemia
[10] = tested on: LOX IMVI melanoma
[11] = tested on: SN12C renal
[12] = tested on: A549 NSCLC
[13] = tested on: MCF7 breast
[14] = tested on: DU-145 prostate
[15] = tested on: SK-MEL-2 melanoma
[16] = tested on: KM12 colon
[17] = tested on: NCI-H522 lung
[18] = tested on: HS 578T breast

| Compound | TGI [1] | TGI [2] | TGI [3] | TGI [4] | TGI [5] | TGI [6] | TGI [7] | TGI [8] | TGI [9] | TGI [10] | TGI [11] | TGI [12] | TGI [13] | TGI [14] | TGI [15] | TGI [16] | TGI [17] | TGI [18] | GI50 [8] |
| --- | --- | --- | --- | --- | --- | --- | --- | --- | --- | --- | --- | --- | --- | --- | --- | --- | --- | --- | --- |
| N=C(N)C1CN(CC=O)C(=O)NC1=O (centres undefined) | > 100 µM | > 100 µM | > 100 µM | > 100 µM | > 100 µM | > 100 µM | > 100 µM | > 100 µM | > 100 µM | > 100 µM | > 100 µM | > 100 µM | > 100 µM | > 100 µM | – | – | – | – | – |
| C/C(=C\COP(=O)(O)OP(=O)(O)O)CC/C=C(\C)CNc1ccc([N+](=O)[O-])cc1 | – | > 100 µM | > 100 µM | > 100 µM | > 100 µM | > 100 µM | – | > 100 µM | > 100 µM | > 100 µM | > 100 µM | > 100 µM | > 100 µM | > 100 µM | > 100 µM | > 100 µM | > 100 µM | > 100 µM | – |
| O=S1(=O)OCCCOS(=O)(=O)C1Br | – | > 100 µM | > 100 µM | > 100 µM | – | > 100 µM | > 100 µM | > 100 µM | – | > 100 µM | > 100 µM | > 100 µM | > 100 µM | > 100 µM | > 100 µM | > 100 µM | > 100 µM | – | – |
| COc1ccc(C(CC(=O)c2ccccc2)C(=O)c2ccc3c(c2)OCO3)cc1 (centres undefined) | > 100 µM | > 100 µM | – | > 100 µM | > 100 µM | > 100 µM | > 100 µM | > 100 µM | > 100 µM | – | > 100 µM | > 100 µM | > 100 µM | > 100 µM | > 100 µM | > 100 µM | – | – | – |
| O=C1/C(=C/c2ccccc2)CCCC/C1=C\c1ccccc1 | > 100 µM | – | 97.1 µM | – | > 100 µM | > 100 µM | – | > 100 µM | – | > 100 µM | > 100 µM | > 100 µM | – | – | > 100 µM | > 100 µM | – | – | – |
| O=C(O)CCSc1nnc(COc2ccc(Cl)cc2)n1-c1ccccc1 | > 100 µM | – | > 100 µM | > 100 µM | > 100 µM | > 100 µM | > 100 µM | > 100 µM | > 100 µM | > 100 µM | > 100 µM | > 100 µM | > 100 µM | > 100 µM | > 100 µM | > 100 µM | > 100 µM | – | – |
| CC(Oc1ccc(Cl)cc1Cl)C(=O)NN1C(=O)CSC1c1ccc(Cl)cc1 (centres undefined) | 80 µM | > 100 µM | > 100 µM | > 100 µM | > 100 µM | > 100 µM | – | 39.2 µM | > 100 µM | > 100 µM | 37.8 µM | > 100 µM | > 100 µM | > 100 µM | > 100 µM | > 100 µM | > 100 µM | > 100 µM | – |
| Cc1cc(NCC2CC/C(=C\C=C\c3ccccc3)C2=O)no1 (centres undefined) | > 100 µM | 88.8 µM | > 100 µM | > 100 µM | > 100 µM | > 100 µM | – | > 100 µM | > 100 µM | > 100 µM | > 100 µM | > 100 µM | > 100 µM | > 100 µM | – | > 100 µM | > 100 µM | > 100 µM | – |
| CCCCc1ccc(N2C(=O)c3cccnc3S2(=O)=O)cc1 | > 100 µM | > 100 µM | > 100 µM | > 100 µM | > 100 µM | > 100 µM | > 100 µM | > 100 µM | > 100 µM | – | > 100 µM | > 100 µM | > 100 µM | > 100 µM | > 100 µM | > 100 µM | > 100 µM | – | – |
| COC(=O)c1cc(C#N)[nH]c1-c1cccs1 | 86 µM | > 100 µM | > 100 µM | > 100 µM | > 100 µM | > 100 µM | > 100 µM | > 100 µM | > 100 µM | – | > 100 µM | > 100 µM | – | > 100 µM | – | > 100 µM | > 100 µM | – | – |
| COc1c(O)cc2c(c1O)C1O[C@H](CO)C(O)[C@H](O)[C@H]1OC2=O (some centres undefined) | – | > 100 µM | > 100 µM | > 100 µM | > 100 µM | > 100 µM | > 100 µM | > 100 µM | > 100 µM | > 100 µM | > 100 µM | > 100 µM | > 100 µM | > 100 µM | > 100 µM | > 100 µM | > 100 µM | – | – |
| COC(=O)/C(=C/CC(N=C(c1ccccc1)c1ccccc1)C(=O)OC)N=C(c1ccccc1)c1ccccc1 (centres undefined) | – | > 100 µM | – | – | > 100 µM | > 100 µM | – | – | > 100 µM | > 100 µM | > 100 µM | > 100 µM | – | – | > 100 µM | > 100 µM | > 100 µM | – | – |
| CC(CCC(=O)O)[C@H]1CCC2[C@H]3C(CC(=O)[C@@]21C)[C@@]1(C)CCC(O)C[C@H]1C[C@@H]3O (some centres undefined) | > 100 µM | > 100 µM | > 100 µM | > 100 µM | > 100 µM | > 100 µM | > 100 µM | > 100 µM | > 100 µM | > 100 µM | > 100 µM | > 100 µM | > 100 µM | > 100 µM | > 100 µM | > 100 µM | > 100 µM | – | – |
| Nc1ccc(C(=O)NN2C(=O)C(Cl)C2c2ccccc2O)cc1 (centres undefined) | – | > 100 µM | > 100 µM | – | > 100 µM | > 100 µM | – | > 100 µM | > 100 µM | > 100 µM | > 100 µM | > 100 µM | – | – | > 100 µM | > 100 µM | > 100 µM | – | – |
| COc1ccc2c(c1)/C(=C\c1cccc(/C=C3/C(=O)Nc4ccc(OC)cc43)n1)C(=O)N2 | 6.03 µM | – | 3.74 µM | > 58.8 µM | > 24.6 µM | 2.6 µM | – | 4.16 µM | 2.02 µM | 1.24 µM | 4.91 µM | > 100 µM | > 25.6 µM | 9.73 µM | 15.5 µM | 4.64 µM | 6.9 µM | > 46.9 µM | 1540 nM |
